Assay results taken from patent publication US6683028B1, “Cyclic guanidine derivatives and their use as pesticides” (Bayer Aktiengesellschaft, priority 1999, dated 2004).

Key:
[1] = logP determination by HPLC (EEC directive 79/831 Annex V. A8); format: physicochemical; conditions: pH = 2; HPLC gradient method, acetonitrile/0.1% aqueous phosphoric acid
Protocol: [logP=the logP values were determined in accordance with EEC directive 79/831 Annex V. A8 by HPLC (gradient method, acetonitrile/0.1% aqueous phosphoric acid)]

[2] = system: peach aphid (Myzus persicae); experiment: Myzus Test; format: in vivo; conditions: active compound concentration of 0.1%; after 6 days; cabbage leaves dipped
Protocol: (§1) Solvent: 7 parts by weight of dimethylformamide
(§2) Emulsifier: 1 part by weight of alkylaryl polyglycol ether
To produce a suitable preparation of active compound, 1 part by weight of active ingredient is mixed with the stated amount of solvent and the stated amount of emulsifier, and the concentrate is diluted with water to the desired concentration.
Cabbage leaves (Brassica oleracea) which are heavily infested by the peach aphid (Myzus persicae) are treated by being dipped into the preparation of active compound of the desired concentration.
After the desired period of time, the kill in % is determined. 100% means that all aphids have been killed; 0% means that none of the aphids have been killed.

[3] = system: mustard beetle larvae (Phaedon cochleariae); experiment: Phaedon Larvae Test; format: in vivo; conditions: active compound concentration of 0.1%; after 7 days; cabbage leaves dipped
Protocol: as §1, §2
To produce a suitable preparation of active compound, 1 part by weight of active compound is mixed with the stated amount of solvent and the stated amount of emulsifier, and the concentrate is diluted with water to the desired concentration.
Cabbage leaves (Brassica oleracea) are treated by being dipped into the preparation of active compound of the desired concentration and are populated with mustard beetle larvae (Phaedon cochleariae) while the leaves are still moist.
After the desired period of time, the kill in % is determined. 100% means that all beetle larvae have been killed; 0% means that none of the beetle larvae have been killed.

Work on `CCCOCN1COCN(Cc2cnc(Cl)s2)C1=N[N+](=O)[O-]` [Example 1, 3-(2-chloro-thiazol-5-yl-methyl)-4-nitroimino-5-n-propoxymethyl-perhydro-1,3,5-oxadiazine] yielded a chromatographic logP [1] of 1.7, a kill [2] of 100% and a kill [3] of 100%.
